*1 amine or outer side, *2 acyl side, *3 side chain or, on linkers, in order; H or OH if unused. Where a SMILES comes first, the peptide text is derived from it. Bridges are numbered along the chain shown (N, C = ends). [ ]: non-standard residue; d: D form. The star is where a group is joined. hPhe(3-Cl-4-CF3) = N[C@@H](CCc1ccc(C(F)(F)F)c(Cl)c1)C(=O)O; X19 = CCCCN([C@@H](Cc1ccc(C)cc1)C(=O)[*:2])[*:1]; NMeGly(cPent) = CN[C@H](C(=O)O)C1CCCC1; NMeD = CN[C@@H](CC(=O)O)C(=O)O; NMeL = CN[C@@H](CC(C)C)C(=O)O; Morpholide = C1CN(*)CCO1; Ac5c = NC1(C(=O)O)CCCC1; Sar = CNCC(=O)O
Columns and labels:
[1] = biological target: GDP-bound HRAS wild-type protein (Homo sapiens, UniProt P01112); assay: Binding to HRAS by surface plasmon resonance (SPR), Single Cycle Kinetics; conditions: for HRAS/KRAS (ratio of KD value with respect to HRAS to KD value with respect to KRAS): GDP-bound HRAS wild-type vs GDP-bound KRAS wild-type
Chain of GDP-bound HRAS wild-type protein (P01112 whole entry): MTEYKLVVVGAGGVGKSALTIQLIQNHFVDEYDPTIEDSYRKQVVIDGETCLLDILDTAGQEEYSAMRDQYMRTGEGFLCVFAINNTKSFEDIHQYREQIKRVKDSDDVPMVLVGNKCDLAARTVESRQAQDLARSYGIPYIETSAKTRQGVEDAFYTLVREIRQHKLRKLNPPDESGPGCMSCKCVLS

[2] = biological target: GDP-bound NRAS wild-type protein (Homo sapiens, UniProt P01111); assay: Binding to NRAS by surface plasmon resonance (SPR), Single Cycle Kinetics; conditions: for NRAS/KRAS (ratio of KD value with respect to NRAS to KD value with respect to KRAS): GDP-bound NRAS wild-type vs GDP-bound KRAS wild-type
Chain of GDP-bound NRAS wild-type protein (P01111 whole entry): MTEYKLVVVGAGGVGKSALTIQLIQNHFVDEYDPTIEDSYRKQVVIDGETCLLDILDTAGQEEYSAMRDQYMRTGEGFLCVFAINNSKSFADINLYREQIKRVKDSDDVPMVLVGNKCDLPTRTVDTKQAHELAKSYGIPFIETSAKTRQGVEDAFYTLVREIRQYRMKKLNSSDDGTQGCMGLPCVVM

[3] = KD ratio HRAS/KRAS, class symbols
[4] = KD ratio NRAS/KRAS, class symbols

CCC[C@H]1C(=O)N[C@@H](CC(C)C)C(=O)N(CCOC)CC(=O)N(C)[C@H]2C/C=C\CCN(C2=O)[C@@H](Cc2ccc(C)cc2)C(=O)N(C)CC(=O)N[C@@H](CCc2cc(F)c(C(F)(F)F)c(F)c2)C(=O)N2C[C@H](OCC)C[C@H]2C(=O)NC2(CCC2)C(=O)N(C)[C@@H](C2CCCC2)C(=O)N(C)[C@H](C(=O)N(C)C)CC(=O)N1C [PP2541]
HRAS/KRAS (ratio of KD value with respect to GDP-bound HRAS wild-type protein to KD value with respect to KRAS) [1, 3]: B (a compound having 3 or more and less than 10 is denoted as B) | NRAS/KRAS (ratio of KD value with respect to GDP-bound NRAS wild-type protein to KD value with respect to KRAS) [2, 4]: A (a compound having 10 or more and less than 20 is denoted as A)

CCOC[C@H]1C(=O)N[C@@H]([C@@H](C)CC)C(=O)N(C)CC(=O)N(C)[C@H]2C/C=C\CCN(C2=O)[C@@H](Cc2ccc(C(F)(F)F)cc2)C(=O)N(C)CC(=O)N[C@@H](CCc2ccc(Cl)c(Cl)c2)C(=O)N2C[C@H](OCC)C[C@H]2C(=O)NC2(CC(C)(C)C2)C(=O)N(C)[C@@H](CC(C)(C)C)C(=O)N(C)[C@H](C(=O)N(C)C)CC(=O)N1C [PP2740]
HRAS/KRAS (ratio of KD value with respect to GDP-bound HRAS wild-type protein to KD value with respect to KRAS) [1, 3]: A (a compound having 10 or more and less than 20 is denoted as A) | NRAS/KRAS (ratio of KD value with respect to GDP-bound NRAS wild-type protein to KD value with respect to KRAS) [2, 4]: AA (a compound having 20 or more is denoted as AA)

CCO[C@@H]1C[C@H]2C(=O)NC3(CCC3)C(=O)N(C)[C@@H](C3CCCC3)C(=O)N(C)[C@H](C(=O)N(C)C)CC(=O)N(C)[C@@H](Cc3cccs3)C(=O)N[C@@H]([C@@H](C)CC)C(=O)N(C)CC(=O)N(C)[C@H]3CCCCCN(C3=O)[C@@H](Cc3ccc(F)cc3)C(=O)N(C)CC(=O)N[C@@H](CCc3cc(F)c(C(F)(F)F)c(F)c3)C(=O)N2C1 [PP1197]
HRAS/KRAS (ratio of KD value with respect to HRAS to KD value with respect to KRAS) ([1]; KD ratio, SPR): B (a compound having 3 or more and less than 10 is denoted as B) | NRAS/KRAS (ratio of KD value with respect to NRAS to KD value with respect to KRAS) ([2]; KD ratio, SPR): B (a compound having 3 or more and less than 10 is denoted as B)

CC[C@H](C)[C@@H]1NC(=O)[C@H](CC(F)(F)F)N(C)C(=O)C[C@@H](C(=O)N2CCOCC2)N(C)C(=O)[C@H](C2CCCC2)N(C)C(=O)C2(CCCC2)NC(=O)[C@@H]2CCCN2C(=O)[C@H](CCc2cc(F)c(C(F)(F)F)c(F)c2)NC(=O)CN(C)C(=O)[C@H](Cc2ccc(C(F)(F)F)cc2)N2CCCCC[C@@H](C2=O)N(C)C(=O)CN(C)C1=O [PP0520]
HRAS/KRAS (ratio of KD value with respect to GDP-bound HRAS wild-type protein to KD value with respect to KRAS) ([1]; KD ratio HRAS/KRAS, SPR): B (a compound having 3 or more and less than 10 is denoted as B) | NRAS/KRAS (ratio of KD value with respect to GDP-bound NRAS wild-type protein to KD value with respect to KRAS) ([2]; KD ratio NRAS/KRAS, SPR): B (a compound having 3 or more and less than 10 is denoted as B)

CCO[C@@H]1C[C@H]2C(=O)NC3(CCC3)C(=O)N(C)[C@@H](C3CCCC3)C(=O)N(CC)[C@H](C(=O)N3CCOCC3)CC(=O)N(C)[C@@H](CCOC)C(=O)N[C@@H]([C@@H](C)CC)C(=O)N(C)CC(=O)N(C)[C@H]3CCCCCN(C3=O)[C@@H](Cc3ccc(C(F)(F)F)cc3)C(=O)N(C)CC(=O)N[C@@H](CCc3cc(F)c(C(F)(F)F)c(F)c3)C(=O)N2C1 [PP0947]
HRAS/KRAS (ratio of KD value with respect to HRAS to KD value with respect to KRAS) ([1]; KD ratio, SPR): A (a compound having 10 or more and less than 20 is denoted as A) | NRAS/KRAS (ratio of KD value with respect to NRAS to KD value with respect to KRAS) ([2]; KD ratio, SPR): A (a compound having 10 or more and less than 20 is denoted as A)

CCCCN1C(=O)CN(C)C(=O)CN(C)C(=O)[C@H]([C@@H](C)CC)NC(=O)[C@H](CC(C)C)N(C)C(=O)C[C@@H](C(=O)N2CCOCC2)N(C)C(=O)[C@H](C2CCCC2)N(C)C(=O)C2(CCCC2)NC(=O)[C@@H]2CCCN2C(=O)[C@H](CCc2ccc(C(F)(F)F)c(Cl)c2)NC(=O)CN(C)C(=O)[C@@H]1Cc1ccc(C)cc1 [PP0062] ([NMeL]I[Sar][Sar][X19][Sar][hPhe(3-Cl-4-CF3)]P[Ac5c][NMeGly(cPent)][NMeD]-Morpholide; lactam N-11)
HRAS/KRAS (ratio of KD for GDP-bound HRAS wild-type to KD for KRAS) ([1]; KD ratio HRAS/KRAS, SPR): C (A compound having a KD ratio of 0.1 or more and less than 3 is denoted as C) | NRAS/KRAS (ratio of KD for GDP-bound NRAS wild-type to KD for KRAS) ([2]; KD ratio NRAS/KRAS, SPR): C (A compound having a KD ratio of 0.1 or more and less than 3 is denoted as C)

CCOC[C@H]1C(=O)N[C@@H]([C@@H](C)CC)C(=O)N(C)CC(=O)N(C)[C@H]2C/C=C\CCN(C2=O)[C@@H](Cc2ccc(C)cc2)C(=O)N(C)CC(=O)N[C@@H](CCc2cc(F)c(C(F)(F)F)c(F)c2)C(=O)N2C[C@H](OCC)C[C@H]2C(=O)NC2(CC(C)(C)C2)C(=O)N(C)[C@@H](C2CCCC2)C(=O)N(C)[C@H](C(=O)N(C)CC)CC(=O)N1C [PP2404]
HRAS/KRAS (ratio of KD value with respect to HRAS to KD value with respect to KRAS) ([1]; SPR): A (a compound having 10 or more and less than 20 is denoted as A) | NRAS/KRAS (ratio of KD value with respect to NRAS to KD value with respect to KRAS) ([2]; SPR): A (a compound having 10 or more and less than 20 is denoted as A)

CCO[C@@H]1C[C@H]2C(=O)NC3(CCC3)C(=O)N(C)[C@@H](C3CCCC3)C(=O)N(CC)[C@H](C(=O)N3CCOCC3)CC(=O)N(C)[C@@H](CCC(F)F)C(=O)N[C@@H]([C@@H](C)CC)C(=O)N(C)CC(=O)N(C)[C@H]3CCCCCN(C3=O)[C@@H](Cc3ccc(C(F)(F)F)cc3)C(=O)N(C)CC(=O)N[C@@H](CCc3cc(F)c(C(F)(F)F)c(F)c3)C(=O)N2C1 [PP0948]
HRAS/KRAS (ratio of KD value with respect to HRAS to KD value with respect to KRAS) ([1]; KD ratio, SPR): A (a compound having 10 or more and less than 20 is denoted as A) | NRAS/KRAS (ratio of KD value with respect to NRAS to KD value with respect to KRAS) ([2]; KD ratio, SPR): A (a compound having 10 or more and less than 20 is denoted as A)
